According to patent publication US8779142B2, “Azabicyclo compound and salt thereof” (Taiho Pharmaceutical Co., Ltd., priority 2009, dated 2014):

Experiments:
SK-BR-3 cells = test: Measurement of cell growth inhibition (crystal violet staining method); type: cell-based; settings: breast cancer SK-BR-3 cells, 72 hr culture with test substance
[1] = target: human HSP90 alpha protein (HSP90 N-terminal protein, amino acids 2-236) (Homo sapiens (Human), UniProt P07900); test: Measurement of HSP90-binding activity (AlphaScreen competitive assay, biotin-labeled geldanamycin); settings: concentration inhibiting binding of biotin-labeled geldanamycin (40 nM) to purified HSP90 to 50% of control; read-out: HSP-binding activity IC50

Structure (SMILES)	IC50 (SK-BR-3 cells; Homo sapiens) [nM]	IC50 [1] [nM]	IC50 (SK-BR-3 cells) [nM]
CN(C)c1cc(C(N)=O)ccc1-n1nc(C(F)(F)F)c2c(-n3cnc(-c4cnn(C)c4)c3)ccnc21 [Example 159, 3-(Dimethylamino)-4-{4-(4-(1-methyl-1H-pyrazol-4-yl)-1H-imidazol-1-yl)-3-(trifluoromethyl)-1H-pyrazolo[3,4-b]pyridin-1-yl}benzamide]	290	210	–
Cc1cn(-c2ccc(C(N)=O)c(NCCCNC(C)C)c2)c2nccc(-c3cnc4ccccc4c3)c12 [Example 60, 2-[3-(Isopropylamino)propylamino]-4-{3-methyl-4-(quinolin-3-yl)-1H-pyrrolo[2,3-b]pyridin-1-yl}benzamide]	1530	1370	–
Cn1cc(-c2cn(-c3ccnc4c3c(C(F)(F)F)nn4-c3ccc(C(N)=O)cc3NCC(F)F)cn2)cn1 [Example 167, 3-(2,2-Difluoroethylamino)-4-{4-(4-(1-methyl-1H-pyrazol-4-yl)-1H-imidazol-1-yl)-3-(trifluoromethyl)-1H-pyrazolo[3,4-b]pyridin-1-yl}benzamide]	80	100	–
CC(C)c1nn(-c2ccc(C(N)=O)c(NC3CCC(O)CC3)c2)c2nccc(-n3cnc(-c4cn[nH]c4)c3)c12 (stereo not shown) [Example 95, 4-{4-(4-(1H-Pyrazol-4-yl)-1H-imidazol-1-yl)-3-isopropyl-1H-pyrazolo[3,4-b]pyridin-1-yl}-2-(4-hydroxycyclohexylamino)benzamide]	20	60	–
CC(C)Nc1cc(-n2nc(C(F)(F)F)c3c(-n4cnc(-c5cnn(C)c5)c4)ccnc32)ccc1C(N)=O [Example 160, 2-(Isopropylamino)-4-{4-(4-(1-methyl-1H-pyrazol-4-yl)-1H-imidazol-1-yl)-3-(trifluoromethyl)-1H-pyrazolo[3,4-b]pyridin-1-yl}benzamide]	20	160	–

The next lines start with the values.

IC50 (SK-BR-3 cells; Homo sapiens) [nM]	IC50 [1] [nM]	IC50 (SK-BR-3 cells) [nM]	Structure (SMILES)
290	220	–	C=Cc1cc(C(N)=O)ccc1-n1nc(C(C)C)c2c(-n3cnc(-c4cnn(C)c4)c3)ccnc21 [Example 101, 4-{3-Isopropyl-4-(4-(1-methyl-1H-pyrazol-4-yl)-1H-imidazol-1-yl)-1H-pyrazolo[3,4-b]pyridin-1-yl}-3-vinylbenzamide]
1130	290	–	Cc1c(C(N)=O)ccc(-n2nc(C(C)C)c3c(-n4cnc(-c5cnn(C)c5)c4)ccnc32)c1C [Example 129, 4-{3-Isopropyl-4-(4-(1-methyl-1H-pyrazol-4-yl)-1H-imidazol-1-yl)-1H-pyrazolo[3,4-b]pyridin-1-yl}-2,3-dimethylbenzamide]
–	60	60	CC(C)c1nn(-c2ccc(C(N)=O)c(NC3CCC(O)CC3)c2)c2nccc(-n3cnc(-c4cnn(CO)c4)c3)c12 (stereo not shown) [Example 96, 2-(4-Hydroxycyclohexylamino)-4-{4-(4-(1-hydroxymethyl)-(1H-pyrazol-4-yl)-1H-imidazol-1-yl)-3-isopropyl-1H-pyrazolo[3,4-b]pyridin-1-yl}benzamide]
210	610	–	CC(=O)N[C@H]1CC[C@H](Nc2cc(-n3cc(C)c4c(-c5cnc6ccccc6c5)ccnc43)ccc2C(N)=O)CC1 [Example 62, 2-(Trans-4-acetamidocyclohexylamino)-4-{3-methyl-4-(quinolin-3-yl)-1H-pyrrolo[2,3-b]pyridin-1-yl}benzamide]
> 10000	> 100000	–	COc1ccc2ccn(-c3ccc(C(N)=O)c(NC4CCC(O)CC4)c3)c2c1 (stereo not shown) [Comparative Example 1, reference compound]
250	140	–	CC(C)c1nn(-c2ccc(C(N)=O)cc2C2CC2)c2nccc(-n3cnc(-c4cnn(C)c4)c3)c12 [Example 105, 3-Cyclopropyl-4-{3-isopropyl-4-(4-(1-methyl-1H-pyrazol-4-yl)-1H-imidazol-1-yl)-1H-pyrazolo[3,4-b]pyridin-1-yl}benzamide]
